Assay results from the supplement of paper PMC5908809.

Key:
[1] = test system: normal NK cells expanded with K562-aAPC; assay: percent inhibition of viability; higher = more inhibition; details: 72 h, IL-2 2.5 ng/mL
Procedure: (§1)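 Drug sensitivity and resistance testing on K562-aAPC-expanded normal NK cells: 5 concentrations (10-fold steps over a 10,000-fold range), 72 h at 37 °C, viability by CellTiter-Glo normalised to DMSO and benzethonium chloride controls; DSS from the fitted curve.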

DERL-7 (IL-2 2.5 ng/mL) [2] = assay: as above; details: 72 h
IMC-1 (IL-2 20 ng/mL) [3] = assay: as above; details: 72 h
KAI3 (IL-2 2.5 ng/mL) [4] = assay: as above; details: 72 h
KHYG-1 (IL-2 2.5 ng/mL) [5] = assay: as above; details: 72 h
NK-92 (IL-2 2.5 ng/mL) [6] = assay: as above; details: 72 h
NK-YS (IL-2 2.5 ng/mL) [7] = assay: as above; details: 72 h
NKL (IL-2 2.5 ng/mL) [8] = assay: as above; details: 72 h
SNK-6 (IL-2 2.5 ng/mL) [9] = assay: as above; details: 72 h
YT (IL-2 2.5 ng/mL) [10] = assay: as above; details: 72 h
[11] = test system: normal primary NK cells, pool 1 (3 donors) (IL-2 2.5 ng/mL); assay: as above; details: 72 h
[12] = test system: normal primary NK cells, pool 1 (3 donors), resting (IL-2 0 ng/mL); assay: as above; details: 72 h
[13] = test system: normal primary NK cells, pool 2 (3 donors) (IL-2 2.5 ng/mL); assay: as above; details: 72 h
[14] = test system: normal primary NK cells, pool 3 (3 donors) (IL-2 2.5 ng/mL); assay: as above; details: 72 h
[15] = test system: normal NK cells expanded with K562-aAPC; assay: drug sensitivity score (DSS) (DSS units); higher = more sensitive; extreme values may be limits of the assay; details: 72 h; IL-2 2.5 ng/mL
Procedure: as §1

DERL-7 (IL-2 2.5 ng/mL) [16] = assay: as above; details: 72 h
IMC-1 (IL-2 20 ng/mL) [17] = assay: as above; details: 72 h
KAI3 (IL-2 2.5 ng/mL) [18] = assay: as above; details: 72 h
KHYG-1 (IL-2 2.5 ng/mL) [19] = assay: as above; details: 72 h
NK-92 (IL-2 2.5 ng/mL) [20] = assay: as above; details: 72 h
NK-YS (IL-2 2.5 ng/mL) [21] = assay: as above; details: 72 h
NKL (IL-2 2.5 ng/mL) [22] = assay: as above; details: 72 h
SNK-6 (IL-2 2.5 ng/mL) [23] = assay: as above; details: 72 h
YT (IL-2 2.5 ng/mL) [24] = assay: as above; details: 72 h
[25] = test system: normal primary NK cells, pool 1 (3 donors) (IL-2 2.5 ng/mL); assay: as above; details: 72 h
[26] = test system: normal primary NK cells, pool 1 (3 donors), resting (IL-2 0 ng/mL); assay: as above; details: 72 h
[27] = test system: normal primary NK cells, pool 2 (3 donors) (IL-2 2.5 ng/mL); assay: as above; details: 72 h
[28] = test system: normal primary NK cells, pool 3 (3 donors) (IL-2 2.5 ng/mL); assay: as above; details: 72 h

CC[C@@]1(O)C(=O)OCc2c1cc1n(c2=O)Cc2cc3ccccc3nc2-1 [Camptothecin] (max concentration tested 5000 nM)
percent inhibition of viability [%]
Details | 0.5 nM | 5 nM | 50 nM | 500 nM | 5000 nM
DERL-7 (IL-2 2.5 ng/mL) [2] | 1 | 20.8 | 97.7 | 92.9 | 100
IMC-1 (IL-2 20 ng/mL) [3] | -1.32 | 4.46 | 99.7 | 100 | 100
KAI3 (IL-2 2.5 ng/mL) [4] | 11.5 | 49.2 | 86.9 | 62.4 | 97.2
KHYG-1 (IL-2 2.5 ng/mL) [5] | -0.47 | 50.6 | 101 | 102 | 99.9
NK-92 (IL-2 2.5 ng/mL) [6] | 4.55 | 41.4 | 101 | 102 | 99.6
NK-YS (IL-2 2.5 ng/mL) [7] | 0.45 | 66.1 | 93.3 | 87.5 | 100
NKL (IL-2 2.5 ng/mL) [8] | 11.3 | 91.1 | 102 | 98.4 | 92.3
SNK-6 (IL-2 2.5 ng/mL) [9] | 19.8 | 56.5 | 96.8 | 98 | 99.4
YT (IL-2 2.5 ng/mL) [10] | -3.33 | 5.46 | 90 | 100 | 99.6
[1] | 4.05 | 11.2 | 54.7 | 59.6 | 97.7
[11] | -11.7 | 2.76 | -4.81 | 19.9 | 41.6
[12] | -1.99 | 11.5 | -26.2 | -25.7 | -5.52
[13] | -7.85 | 0.79 | 8.18 | 26.8 | 60.9
[14] | 0.98 | 3.16 | 10.9 | 36.9 | 60.6

Details | drug sensitivity score
DERL-7 (IL-2 2.5 ng/mL) [16] | 33.3
IMC-1 (IL-2 20 ng/mL) [17] | 31
KAI3 (IL-2 2.5 ng/mL) [18] | 36.2
KHYG-1 (IL-2 2.5 ng/mL) [19] | 36.8
NK-92 (IL-2 2.5 ng/mL) [20] | 35.6
NK-YS (IL-2 2.5 ng/mL) [21] | 38.3
NKL (IL-2 2.5 ng/mL) [22] | 43.1
SNK-6 (IL-2 2.5 ng/mL) [23] | 37.5
YT (IL-2 2.5 ng/mL) [24] | 29.5
[15] | 19.8
[25] | 4.65
[26] | 0
[27] | 6.31
[28] | 8.23

COc1cc2c(Oc3ccc4[nH]c(C)cc4c3F)ncnc2cc1OCCCN1CCCC1 [Cediranib] (max concentration tested 1000 nM)
percent inhibition of viability [%]
Details | 0.1 nM | 1 nM | 10 nM | 100 nM | 1000 nM
DERL-7 (IL-2 2.5 ng/mL) [2] | 0.36 | 1.65 | 5.2 | 3.45 | 7.76
IMC-1 (IL-2 20 ng/mL) [3] | -5.84 | 1.16 | -0.8 | 8.28 | 17.6
KAI3 (IL-2 2.5 ng/mL) [4] | 4.2 | -2.39 | -4.78 | -7.3 | 2.49
KHYG-1 (IL-2 2.5 ng/mL) [5] | 4.26 | 1.2 | 0.25 | 3.56 | 5.7
NK-92 (IL-2 2.5 ng/mL) [6] | -10.6 | 3.93 | 7.82 | 10.5 | 25.9
NK-YS (IL-2 2.5 ng/mL) [7] | -2.57 | -1.64 | -1.64 | -2.9 | 4.62
NKL (IL-2 2.5 ng/mL) [8] | -22.1 | -12.6 | -8.18 | 4.3 | -2.96
SNK-6 (IL-2 2.5 ng/mL) [9] | -0.01 | -5.98 | -7.81 | 1.67 | -2.98
YT (IL-2 2.5 ng/mL) [10] | -2.86 | -1.1 | -1.25 | -2.55 | 7.27
[1] | -3.67 | -0.35 | -1.67 | 10.2 | 9.48
[11] | 4.11 | -11.2 | -8.24 | -9.08 | -10.8
[12] | 4.39 | -7.82 | 2.26 | -0.33 | 6.25
[13] | -4.71 | 1.73 | 4.28 | -4.99 | 7
[14] | -13.7 | -14.2 | -5.69 | -12.7 | -3.19

Details | drug sensitivity score
DERL-7 (IL-2 2.5 ng/mL) [16] | 0
IMC-1 (IL-2 20 ng/mL) [17] | 1.2
KAI3 (IL-2 2.5 ng/mL) [18] | 0
KHYG-1 (IL-2 2.5 ng/mL) [19] | 0
NK-92 (IL-2 2.5 ng/mL) [20] | 1.88
NK-YS (IL-2 2.5 ng/mL) [21] | 0
NKL (IL-2 2.5 ng/mL) [22] | 0
SNK-6 (IL-2 2.5 ng/mL) [23] | 0
YT (IL-2 2.5 ng/mL) [24] | 0
[15] | 0.03
[25] | 0
[26] | 0
[27] | 0
[28] | 0
